Results: publication PMC5433425 (PeerJ, 2017)

Key:
E. coli AG100 = test: EtBr accumulation by real-time fluorometry; details: EtBr 1 µg/ml + inhibitor 80 µM
E. coli AG100tet = test: EtBr efflux by real-time fluorometry; details: 80 µM
Procedure: Control tubes with only cells and cells with and without 0.4% glucose were included. The fluorescence was measured in a Rotor-Gene 3000 and the data was acquired every 30 s for 30 min at 37 °C. The efflux activity was quantified by comparing the fluorescence data obtained under conditions that promote efflux (presence of glucose and absence of efflux inhibitor) with the data from the control in which the bacteria are under conditions of no efflux (presence of an inhibitor and no energy source).

## CCCOc1ccc(-c2cc(OCCN3CCNCC3)c3ccccc3n2)cc1 [PQQ4R, 4-(2-(piperazin-1-yl)ethoxy)-2-(4-propoxyphenyl) quinolone]
E. coli AG100; cycle 1
  EtBr fluorescence: 8.891
E. coli AG100; cycle 2
  EtBr fluorescence: 15.958
E. coli AG100; cycle 3
  EtBr fluorescence: 24.4435
E. coli AG100; cycle 4
  EtBr fluorescence: 32.9586
E. coli AG100; cycle 5
  EtBr fluorescence: 42.0049
E. coli AG100; cycle 6
  EtBr fluorescence: 50.7014
E. coli AG100; cycle 7
  EtBr fluorescence: 59.8624
E. coli AG100; cycle 8
  EtBr fluorescence: 68.0874
E. coli AG100; cycle 9
  EtBr fluorescence: 75.8019
E. coli AG100; cycle 10
  EtBr fluorescence: 82.5362
E. coli AG100; cycle 11
  EtBr fluorescence: 89.2
E. coli AG100; cycle 12
  EtBr fluorescence: 95.2197
E. coli AG100; cycle 13
  EtBr fluorescence: 100
E. coli AG100; cycle 14
  EtBr fluorescence: 100
E. coli AG100; cycle 15
  EtBr fluorescence: 100
E. coli AG100; cycle 16
  EtBr fluorescence: 100
E. coli AG100; cycle 17
  EtBr fluorescence: 100
E. coli AG100; cycle 18
  EtBr fluorescence: 100
E. coli AG100; cycle 19
  EtBr fluorescence: 100
E. coli AG100; cycle 20
  EtBr fluorescence: 100
E. coli AG100; cycle 21
  EtBr fluorescence: 100
E. coli AG100; cycle 22
  EtBr fluorescence: 100
E. coli AG100; cycle 23
  EtBr fluorescence: 100
E. coli AG100; cycle 24
  EtBr fluorescence: 100
E. coli AG100; cycle 25
  EtBr fluorescence: 100
E. coli AG100; cycle 26
  EtBr fluorescence: 100
E. coli AG100; cycle 27
  EtBr fluorescence: 100
E. coli AG100; cycle 28
  EtBr fluorescence: 100
E. coli AG100; cycle 29
  EtBr fluorescence: 100
E. coli AG100; cycle 30
  EtBr fluorescence: 100
E. coli AG100tet; cycle 1, + glucose
  Fluorescence raw data, Channel Cycling A.530/585hp: 3.509
E. coli AG100tet; cycle 1, without glucose
  Fluorescence raw data, Channel Cycling A.530/585hp: 3.29
E. coli AG100tet; cycle 2, + glucose
  Fluorescence raw data, Channel Cycling A.530/585hp: 3.253
E. coli AG100tet; cycle 2, without glucose
  Fluorescence raw data, Channel Cycling A.530/585hp: 3.046
E. coli AG100tet; cycle 3, + glucose
  Fluorescence raw data, Channel Cycling A.530/585hp: 3.181
E. coli AG100tet; cycle 3, without glucose
  Fluorescence raw data, Channel Cycling A.530/585hp: 3.057
E. coli AG100tet; cycle 4, without glucose
  Fluorescence raw data, Channel Cycling A.530/585hp: 3.005
E. coli AG100tet; cycle 5, without glucose
  Fluorescence raw data, Channel Cycling A.530/585hp: 2.971
E. coli AG100tet; cycle 6, without glucose
  Fluorescence raw data, Channel Cycling A.530/585hp: 3.106
E. coli AG100tet; cycle 7, without glucose
  Fluorescence raw data, Channel Cycling A.530/585hp: 3.154
E. coli AG100tet; cycle 8, without glucose
  Fluorescence raw data, Channel Cycling A.530/585hp: 3.202
E. coli AG100tet; cycle 9, + glucose
  Fluorescence raw data, Channel Cycling A.530/585hp: 3.419
E. coli AG100tet; cycle 9, without glucose
  Fluorescence raw data, Channel Cycling A.530/585hp: 3.159
E. coli AG100tet; cycle 10, + glucose
  Fluorescence raw data, Channel Cycling A.530/585hp: 3.524
E. coli AG100tet; cycle 10, without glucose
  Fluorescence raw data, Channel Cycling A.530/585hp: 3.043
E. coli AG100tet; cycle 11, + glucose
  Fluorescence raw data, Channel Cycling A.530/585hp: 3.644
E. coli AG100tet; cycle 11, without glucose
  Fluorescence raw data, Channel Cycling A.530/585hp: 3.142
E. coli AG100tet; cycle 12, + glucose
  Fluorescence raw data, Channel Cycling A.530/585hp: 3.857
E. coli AG100tet; cycle 12, without glucose
  Fluorescence raw data, Channel Cycling A.530/585hp: 3.158
E. coli AG100tet; cycle 13, + glucose
  Fluorescence raw data, Channel Cycling A.530/585hp: 3.873
E. coli AG100tet; cycle 13, without glucose
  Fluorescence raw data, Channel Cycling A.530/585hp: 3.143
E. coli AG100tet; cycle 14, + glucose
  Fluorescence raw data, Channel Cycling A.530/585hp: 3.954
E. coli AG100tet; cycle 14, without glucose
  Fluorescence raw data, Channel Cycling A.530/585hp: 3.212
E. coli AG100tet; cycle 15, + glucose
  Fluorescence raw data, Channel Cycling A.530/585hp: 4.044
E. coli AG100tet; cycle 15, without glucose
  Fluorescence raw data, Channel Cycling A.530/585hp: 3.129
E. coli AG100tet; cycle 16, + glucose
  Fluorescence raw data, Channel Cycling A.530/585hp: 4.17
E. coli AG100tet; cycle 16, without glucose
  Fluorescence raw data, Channel Cycling A.530/585hp: 3.186
E. coli AG100tet; cycle 17, + glucose
  Fluorescence raw data, Channel Cycling A.530/585hp: 4.316
E. coli AG100tet; cycle 17, without glucose
  Fluorescence raw data, Channel Cycling A.530/585hp: 3.1931
E. coli AG100tet; cycle 18, + glucose
  Fluorescence raw data, Channel Cycling A.530/585hp: 4.457
E. coli AG100tet; cycle 18, without glucose
  Fluorescence raw data, Channel Cycling A.530/585hp: 3.175
E. coli AG100tet; cycle 19, + glucose
  Fluorescence raw data, Channel Cycling A.530/585hp: 4.5
E. coli AG100tet; cycle 19, without glucose
  Fluorescence raw data, Channel Cycling A.530/585hp: 3.177
E. coli AG100tet; cycle 20, + glucose
  Fluorescence raw data, Channel Cycling A.530/585hp: 4.55
E. coli AG100tet; cycle 20, without glucose
  Fluorescence raw data, Channel Cycling A.530/585hp: 3.2463
E. coli AG100tet; cycle 21, + glucose
  Fluorescence raw data, Channel Cycling A.530/585hp: 4.567
E. coli AG100tet; cycle 21, without glucose
  Fluorescence raw data, Channel Cycling A.530/585hp: 3.257
E. coli AG100tet; cycle 22, + glucose
  Fluorescence raw data, Channel Cycling A.530/585hp: 4.692
E. coli AG100tet; cycle 22, without glucose
  Fluorescence raw data, Channel Cycling A.530/585hp: 3.214
E. coli AG100tet; cycle 23, + glucose
  Fluorescence raw data, Channel Cycling A.530/585hp: 4.73
E. coli AG100tet; cycle 23, without glucose
  Fluorescence raw data, Channel Cycling A.530/585hp: 3.261
E. coli AG100tet; cycle 24, + glucose
  Fluorescence raw data, Channel Cycling A.530/585hp: 4.823
E. coli AG100tet; cycle 24, without glucose
  Fluorescence raw data, Channel Cycling A.530/585hp: 3.277
E. coli AG100tet; cycle 25, + glucose
  Fluorescence raw data, Channel Cycling A.530/585hp: 4.864
E. coli AG100tet; cycle 25, without glucose
  Fluorescence raw data, Channel Cycling A.530/585hp: 3.306
E. coli AG100tet; cycle 26, + glucose
  Fluorescence raw data, Channel Cycling A.530/585hp: 4.922
E. coli AG100tet; cycle 26, without glucose
  Fluorescence raw data, Channel Cycling A.530/585hp: 3.351
E. coli AG100tet; cycle 27, + glucose
  Fluorescence raw data, Channel Cycling A.530/585hp: 4.884
E. coli AG100tet; cycle 27, without glucose
  Fluorescence raw data, Channel Cycling A.530/585hp: 3.344
E. coli AG100tet; cycle 28, + glucose
  Fluorescence raw data, Channel Cycling A.530/585hp: 5.012
E. coli AG100tet; cycle 28, without glucose
  Fluorescence raw data, Channel Cycling A.530/585hp: 3.341
E. coli AG100tet; cycle 29, + glucose
  Fluorescence raw data, Channel Cycling A.530/585hp: 5.042
E. coli AG100tet; cycle 29, without glucose
  Fluorescence raw data, Channel Cycling A.530/585hp: 3.312
E. coli AG100tet; cycle 30, + glucose
  Fluorescence raw data, Channel Cycling A.530/585hp: 5.087
E. coli AG100tet; cycle 30, without glucose
  Fluorescence raw data, Channel Cycling A.530/585hp: 3.355
E. coli AG100tet; cycle 31, + glucose
  Fluorescence raw data, Channel Cycling A.530/585hp: 5.094
E. coli AG100tet; cycle 31, without glucose
  Fluorescence raw data, Channel Cycling A.530/585hp: 3.321
E. coli AG100tet; cycle 32, + glucose
  Fluorescence raw data, Channel Cycling A.530/585hp: 5.074
E. coli AG100tet; cycle 32, without glucose
  Fluorescence raw data, Channel Cycling A.530/585hp: 3.301
E. coli AG100tet; cycle 33, + glucose
  Fluorescence raw data, Channel Cycling A.530/585hp: 5.085
E. coli AG100tet; cycle 33, without glucose
  Fluorescence raw data, Channel Cycling A.530/585hp: 3.3487
E. coli AG100tet; cycle 34, + glucose
  Fluorescence raw data, Channel Cycling A.530/585hp: 5.136
E. coli AG100tet; cycle 34, without glucose
  Fluorescence raw data, Channel Cycling A.530/585hp: 3.377
E. coli AG100tet; cycle 35, + glucose
  Fluorescence raw data, Channel Cycling A.530/585hp: 5.101
E. coli AG100tet; cycle 35, without glucose
  Fluorescence raw data, Channel Cycling A.530/585hp: 3.39
E. coli AG100tet; cycle 36, + glucose
  Fluorescence raw data, Channel Cycling A.530/585hp: 5.167
E. coli AG100tet; cycle 36, without glucose
  Fluorescence raw data, Channel Cycling A.530/585hp: 3.3989
E. coli AG100tet; cycle 37, + glucose
  Fluorescence raw data, Channel Cycling A.530/585hp: 5.0249
E. coli AG100tet; cycle 37, without glucose
  Fluorescence raw data, Channel Cycling A.530/585hp: 3.336
E. coli AG100tet; cycle 38, + glucose
  Fluorescence raw data, Channel Cycling A.530/585hp: 5.139
E. coli AG100tet; cycle 38, without glucose
  Fluorescence raw data, Channel Cycling A.530/585hp: 3.322
E. coli AG100tet; cycle 39, + glucose
  Fluorescence raw data, Channel Cycling A.530/585hp: 5.07
E. coli AG100tet; cycle 39, without glucose
  Fluorescence raw data, Channel Cycling A.530/585hp: 3.367
E. coli AG100tet; cycle 40, + glucose
  Fluorescence raw data, Channel Cycling A.530/585hp: 5.071
E. coli AG100tet; cycle 40, without glucose
  Fluorescence raw data, Channel Cycling A.530/585hp: 3.292
E. coli AG100tet; cycle 41, + glucose
  Fluorescence raw data, Channel Cycling A.530/585hp: 5.036
E. coli AG100tet; cycle 41, without glucose
  Fluorescence raw data, Channel Cycling A.530/585hp: 3.413
E. coli AG100tet; cycle 42, + glucose
  Fluorescence raw data, Channel Cycling A.530/585hp: 4.946
E. coli AG100tet; cycle 42, without glucose
  Fluorescence raw data, Channel Cycling A.530/585hp: 3.2813
E. coli AG100tet; cycle 43, + glucose
  Fluorescence raw data, Channel Cycling A.530/585hp: 5.023
E. coli AG100tet; cycle 43, without glucose
  Fluorescence raw data, Channel Cycling A.530/585hp: 3.329
E. coli AG100tet; cycle 44, + glucose
  Fluorescence raw data, Channel Cycling A.530/585hp: 4.8625
E. coli AG100tet; cycle 44, without glucose
  Fluorescence raw data, Channel Cycling A.530/585hp: 3.331
E. coli AG100tet; cycle 45, without glucose
  Fluorescence raw data, Channel Cycling A.530/585hp: 3.333
E. coli AG100tet; cycle 46, without glucose
  Fluorescence raw data, Channel Cycling A.530/585hp: 3.356
E. coli AG100tet; cycle 47, without glucose
  Fluorescence raw data, Channel Cycling A.530/585hp: 3.3344
E. coli AG100tet; cycle 48, without glucose
  Fluorescence raw data, Channel Cycling A.530/585hp: 3.246
E. coli AG100tet; cycle 49, without glucose
  Fluorescence raw data, Channel Cycling A.530/585hp: 3.317
E. coli AG100tet; cycle 50, without glucose
  Fluorescence raw data, Channel Cycling A.530/585hp: 3.306
E. coli AG100tet; cycle 51, without glucose
  Fluorescence raw data, Channel Cycling A.530/585hp: 3.275
E. coli AG100tet; cycle 52, without glucose
  Fluorescence raw data, Channel Cycling A.530/585hp: 3.293
E. coli AG100tet; cycle 53, without glucose
  Fluorescence raw data, Channel Cycling A.530/585hp: 3.359
E. coli AG100tet; cycle 54, without glucose
  Fluorescence raw data, Channel Cycling A.530/585hp: 3.295
E. coli AG100tet; cycle 55, without glucose
  Fluorescence raw data, Channel Cycling A.530/585hp: 3.253
E. coli AG100tet; cycle 56, without glucose
  Fluorescence raw data, Channel Cycling A.530/585hp: 3.229
E. coli AG100tet; cycle 57, without glucose
  Fluorescence raw data, Channel Cycling A.530/585hp: 3.179
E. coli AG100tet; cycle 58, without glucose
  Fluorescence raw data, Channel Cycling A.530/585hp: 3.169
E. coli AG100tet; cycle 59, without glucose
  Fluorescence raw data, Channel Cycling A.530/585hp: 3.145
E. coli AG100tet; cycle 60, without glucose
  Fluorescence raw data, Channel Cycling A.530/585hp: 3.211
E. coli AG100tet; cycle 61, without glucose
  Fluorescence raw data, Channel Cycling A.530/585hp: 3.105
